# “Also recorded” adds a separate entry of the source.
# What was measured:
# mouse skin = test: Skin darkening experiments in mice (Table 5); assay type: in vivo; conditions: HG-9-91-01: 2 days, 25 mM, HG-11-136-01: 12 days, HG-11-143-01: 12 days, 25 mM (4 days) −130 mM (8 days)
# Experimental: Mouse pigmentation experiments. […] Daily differences in darkening of the skin were measured by reflective colorimetry. Skin was harvested, fixed, and processed for paraffin embedding. Sections were cut from paraffin blocks, and sections were stained utilizing hematoxylin and eosin (morphology) and Fontana-Masson (melanin). Melanin dissolution was conducted utilizing NaOH lysis method (Wakamatsu and Ito 2002).
# (§1) Table 5 below additionally provides characteristics of exemplary SIK inhibitor compounds, MITF induction in B16 cells, EC50, log P, and experimental conditions for skin darkening experiments in mice and humans.
# B16 cells = test: In vitro MITF induction in B16 cells; assay type: cell-based, mouse; conditions: Mus musculus, Table 5
# Experimental: (§2) qPCR. mRNA was extracted from cells using the RNeasy Mini Kit (Qiagen®). KAPA SYBR® FAST Universal One-Step qRT-PCR Kit (KAPA BIOSYSTEMS®) was used to prepare mRNA samples for qPCR and samples were analyzed using the 7500 Fast Real Time PCR System (Applied Biosystems®). The relative expression of each gene was calculated by 7500 Fast System Software program, which utilizes Ct normalized to mRNA levels of RPL11 to calculate relative expression. Results are reported relative to control cells.
# Tables 2 to 5 below show the effects of exemplary […] compounds on skin darkening, including an in vitro test of MITF induction following the same protocol as described above in paragraph 333, wherein exemplary SIK inhibitor compounds were tested for their in vitro induction of MITF.
# as §1
# SIKs = test: Kinase activity in vitro assay (biochemical IC50 against SIKs); design: species or system human; conditions: compared with HG 9-91-01 (FIG. 6)
# Experimental: Kinase activity in vitro assay. The biochemical activities against SIK2 were measured by Caliper-based mobility shift assay (PerkinElmer®). […] Reactions were quenched by adding 20 mM EDTA (pH 8) after 1 hour, and percentage of substrate conversion was measured by LabChip EZ Reader II (PerkinElmer®). IC50's for SIK2 inhibition were calculated using SmartFit nonlinear regression in Genedata® Screener software suite (Genedata®).
# (§3) All other in vitro kinase assay were conducted using the SelectScreen Kinase Profiling Service at Thermo Fisher Scientific® (Madison, Wis.). The protocols are available from Thermo Fisher Scientific® website.
# [1] = test system: normal human melanocytes, UACC62 melanoma cells, and UACC257 melanoma cells; test: MITF and TRPM1 mRNA expression by qPCR; assay type: cell-based; conditions: for Mitf expression: UACC62 and UACC257 melanoma cells (FIG. 7); for TRPM1 mRNA levels (MITF gene target): delayed relative to MITF induction, 4 uM, over 24 hours; for MITF mRNA expression / Induction of the pigmentation pathway compared with HG 9-91-01: normal human melanocytes; for MITF mRNA expression: UACC62 and UACC257 cells, 3 hours of treatment, relative to RPL11; for Induction of the pigmentation pathway compared with HG 9-91-01: Mitf and TRPM1 mRNA (FIG. 4)
# Experimental: Cell Culture. UACC257 and UACC62 cells were grown in RPM1+1% penicillin and streptomycin+5% fetal bovine serum. Normal human melanocytes were grown in TIVA, and starved 24 hours in HAM's F-12+1% penicillin and streptomycin before all molecular experiments.
# as §2
# [2] = test system: human breast skin explants; test: Human skin explants: darkening/pigmentation after topical SIK inhibitor; assay type: cell-based; conditions: for Results (skin darkening): Human Skin Explants; for Gross pigmentation of human skin explants / Melanin content, Fontana Masson staining: 37.5 mM; for Gross pigmentation of human skin explants: 8 days (1×/day); for Melanin content, Fontana Masson staining: 8 days, compared to control
# Experimental: Image and Colorimeter analysis were conducted 24 hours after the last treatment.
# Human pigmentation experiments. Full thickness human breast skin explants were cultured in petri dishes with a solid phase and liquid phase phenol red free DMEM medium with […], 5% fungizone (Gibco®), and 10% FBS. Passive application refers to simply applying the treatment to skin without further rubbing or manipulation. Mechanical application refers to application of agents to skin with further rubbing of treatment with 10 clockwise turns of a gloved cotton swab applicator. Skin was harvested, fixed, and processed for paraffin embedding. Sections were cut from paraffin blocks, and sections were stained utilizing hematoxylin and eosin (morphology) and Fontana-Masson (melanin).
# Mc1r^e/e;K14—Scf mice = test: Mouse pigmentation experiment, redhair model; assay type: in vivo
# Experimental: (§4) Mice. C57BL/6J Mc1r^e/e mice were crossed with K14—Scf transgenic mice. C57BL/6J Tyr^c2j/c2j were crossed with K14—Scf transgenic mice. (Kunisada et al. 1998; D'Orazio et al. 2006).
# (§5) Mouse pigmentation experiments. Animals were treated with vehicle control or 37.5 mM HG 9-9-01 until uniform gross darkening was visible as stated in figure legends. Daily differences in darkening of the skin were measured by reflective colorimetry. Skin was harvested, fixed, and processed for paraffin embedding. Sections were cut from paraffin blocks, and sections were stained utilizing hematoxylin and eosin (morphology) and Fontana-Masson (melanin). Melanin dissolution was conducted utilizing NaOH lysis method (Wakamatsu and Ito 2002).
# (§6) Colorimeter Measurements: Differences in darkening of the skin were measured by reflective colorimetry (CIE L* white-black color axis) utilizing a CR-400 Colorimeter (Minolta®) calibrated by a calibration plate (C: Y 93.1, x 0.3133, y 0.3194) before each set of measurements.
# (§7) To test this, a previously described mouse “redhair” model was utilized which carries the inactivating Mc1r^e/e mutant allele and a transgene, K14—SCF, in which Stem Cell Factor expression is driven by the Keratin-14 promoter allowing for epidermal homing of melanocytes (Kunisada et al. 1998; D'Orazio et al. 2006). Albino mice harboring a mutation in the tyrosinase gene were combined with the K14—Scf transgene (tyr^c/c;K14—Scf mice) and served as controls to evaluate whether the pigmentation afforded by topical SIK inhibitor was dependent upon the canonical tyrosinase-melanin pathway. […] Skin pigmentation remained in its pretreatment state over the next 30 days (FIG. 3A; 3B). […] These findings combined with the small molecule and lipophilic nature of the SIK inhibitors led us to investigate the use of SIK inhibitors for topical eumelanization of human skin.
# Tyr^c/c;K14—Scf mice = test: Mouse pigmentation experiment, albino control mice; assay type: in vivo
# Experimental: as §4, §5, §6, §7
# UACC257 melanoma cells = test: Cell pelleting experiment (gross pigmentation of cell pellets); assay type: cell-based, human; conditions: 4 uM, 3 days of treatment
# Experimental: Cell pelleting experiments. 1×10^5 UACC257 cells were plated per well in a 6-well plate. […] After 3 days, cells were trypsinized with 0.25% trypsin, resuspended in RPMI media, and pelleted. Pellets were washed 1× with PBS and allowed to dry before imaging.
# FRK and SIKs = test: Enzymatic assays of KinomeScan top hits (in-house or SelectScreen); assay type: biochemical, human
# Experimental: as §3
# (§8) Since there are limitations to topical delivery of drugs into human skin epidermis, novel SIK inhibitors designed to enhance epidermal permeation by reducing the size and increasing the lipophilicity (c Log P) to develop second generation SIK inhibitors YKL 06-061 and YKL 06-062 were derived (FIG. 6) (Bos and Meinardi 2000; Hadgraft and Pugh 1998). […] To assess the kinome selectivity information of new analogs, YKL-06-061 was screened across a panel of 468 human kinases at a concentration of […] using the KinomeScan methodology (DiscoverX). […] As the KinomeScan assays measure binding, enzymatic assays for these targets were also performed either in-house or using the SelectScreen Kinase Profiling Service at Thermo Fisher Scientific (Madison, Wis.).
# [3] = test system: panel of 468 human kinases; test: KinomeScan kinome profiling; assay type: binding
# Experimental: Kinome Profiling. Kinome profiling was performed using KinomeScan ScanMAX at compound concentration of 1 μM. Protocols are available from DiscoverX®.
# as §8
# [4] = Table 2, passive topical application
SMILES,Darkening (Mouse) (mouse skin),IC50 values for inhibition of SIKs (SIKs),Mitf expression [1],TRPM1 mRNA levels (MITF gene target) [1],MITF mRNA expression [1],Induction of the pigmentation pathway compared with HG 9-91-01 [1],"Results (skin darkening) [2, 4]",Results (skin darkening) ([2]; Table 4),Gross pigmentation of human skin explants ([2]; passive topical application),"Melanin content, Fontana Masson staining ([2]; passive topical application)",also measured
COc1ccc(N(C(=O)Nc2c(C)cccc2C)c2cc(Nc3ccc(N4CCN(C)CC4)cc3)ncn2)c(OC)c1 [HG-9-91-01],Darkens,,,,,,,,,,"EC50 (B16 cells; readout not given, presumably mitf induction in B16 cells): 16 nM"
COc1ccc(N2C(=O)N(c3c(C)cccc3C)Cc3cnc(Nc4ccc(N5CCN(C)CC5)cc4)nc32)c(OC)c1 [HG-11-136-01],Darkens,,,,,,,,,,"maximal fold induction (B16 cells; B16 cells, read-out: Highest fold mitf induction in B16 cells): 6.1"
"Cc1cccc(C)c1N1Cc2cnc(Nc3ccc(N4CCN(C)CC4)cc3)nc2N(C2CCCCC2)C1=O [YKL-06-062, 1-cyclohexyl-3-(2,6-dimethylphenyl)-7-(4-(4-methylpiperazin-1-yl)phenylamino)-3,4-dihydropyrimido[4,5-d]pyrimidin-2(1H)-one]",,comparable,induces Mitf expression,increased,dose dependent increase,as efficacious in inducing the pigmentation pathway as HG 9-91-01,Darkens,Darkens,induced significant pigmentation,increased melanin content,
COc1ccc(N(C(=O)Nc2c(C)cccc2C)c2cc(Nc3ccc(N4CCN(C)CC4)cc3)ncn2)c(OC)c1 [HG 9-91-01],,,induces Mitf expression,increased,Dose-dependent increases,,,,,,"Fontana-Masson staining, difference between treatment groups (Mc1r^e/e;K14—Scf mice; 40 days after treatment, Mc1r^e/e;K14—Scf and Tyr^c/c;K14—Scf mice): no differences; Skin morphology, hematoxylin and eosin stain (Mc1r^e/e;K14—Scf mice; 40 days after treatment, all mice): normal morphology; Nuclear capping of melanosomes within epidermal keratinocytes (Mc1r^e/e;K14—Scf mice; Fontana-Masson stained skin sections): Nuclear capping of melanin-laden melanosomes was observed; Time to reversal of darkening after treatment was stopped (Mc1r^e/e;K14—Scf mice; after 6 days of topical treatment): ≤ 10 days; Skin morphology, hematoxylin and eosin staining (Mc1r^e/e;K14—Scf mice; after treatment): normal morphology; Extractable eumelanin, NaOH lysis of skin samples (Mc1r^e/e;K14—Scf mice; compared to all other treatment groups): visible increase in extractable eumelanin; Course of darkening (Mc1r^e/e;K14—Scf mice; topical application, 6 days of treatment): progressive and reversible; also recorded: progressive over 6 days of treatment; Reflective colorimetry (CIE L* white-black color axis) (Mc1r^e/e;K14—Scf mice; topical, daily, 37.5 mM): significant darkening; Gross skin darkening (Mc1r^e/e;K14—Scf mice; topical, daily, 37.5 mM, 30 uL, 6 days / 7 days (FIG. 2)): robust darkening; Melanin production, Fontana-Masson staining (Mc1r^e/e;K14—Scf mice; treated skin areas): strong induction of melanin production; Epidermis morphology, hematoxylin and eosin staining (Tyr^c/c;K14—Scf mice; after treatment): normal morphology; Pigment induction, Fontana-Masson staining (Tyr^c/c;K14—Scf mice; albino mice): no pigment induction; Visible change in skin pigmentation (Tyr^c/c;K14—Scf mice; albino mice, topical, daily, 37.5 mM): No visible change in skin pigmentation; Change of skin colour during and after treatment (Tyr^c/c;K14—Scf mice; during treatment or 14 days after treatment was stopped): No change; Gross pigmentation of cell pellets (UACC257 melanoma cells): Gross pigmentation was observed"
"COc1cc(N2CCN(C)CC2)ccc1Nc1ncc2c(n1)N(C1CCC1)C(=O)N(c1c(C)cccc1C)C2 [YKL-06-061, 1-cyclobutyl-3-(2,6-dimethylphenyl)-7-(2-methoxy-4-(4-methylpiperazin-1-yl)phenylamino)-3,4-dihydropyrimido[4,5-d]pyrimidin-2(1H)-one]",,comparable,induces Mitf expression,increased,dose dependent increase,as efficacious in inducing the pigmentation pathway as HG 9-91-01,Darkens,Darkens,induced significant pigmentation,increased melanin content,Kinase selectivity in enzymatic assays (FRK and SIKs): only inhibited one kinase (FRK) stronger than SIKs; S(1) score ([3]; concentration of 1 pM): 0.02; Number of kinases displaying tight binding (Ambit scores of less than or equal to 1) ([3]; concentration of 1 µM): 16
